Test results from patent US20190105367A1, “ANTIMICROBIAL 4-OXOQUINOLIZINES” (Emergent Product Development Gaithersburg Inc., priority 2011, published 2019).
Values after ≈ are worked out from the molar mass of the structure shown. Where two headings read alike, the source gives them in different places.

What was measured:
A. baumannii ATCC 19606 = experiment: MIC, selected panel of bacterial strains (Example 5); type: cell-based, Acinetobacter baumannii
S. aureus ATCC 25923 = experiment: as above; type: cell-based, Staphylococcus aureus
[1] = tested on: S. aureus ATCC 43300 (MRSA, FQ-S); experiment: as above; type: cell-based, Staphylococcus aureus; details: Staphylococcus aureus, read-out: MICs against Gram positive bacteria S. aureus ATCC 43300 (MRSA, FQ-S)
E. coli ATCC 25922 = experiment: as above; type: cell-based, Escherichia coli; details: Escherichia coli, ATCC25922, read-out: MICs against Gram negative bacteria E. coli ATCC 25922
[2] = tested on: S. aureus BAA-1556 (USA300-Type) (MRSA, FQ-R); experiment: as above; type: cell-based, Staphylococcus aureus; details: Staphylococcus aureus, read-out: MICs against Gram positive bacteria S. aureus BAA-1556 (USA300-Type) (MRSA, FQ-R)
[3] = tested on: K. pneumoniae BAA-2146 (NDM-1, FQ-R); experiment: MIC on K. pneumoniae (Example 5); type: cell-based, Klebsiella pneumoniae; details: quinolone-resistant strain
Method: (§1) MIC Values for all compounds were measured against a selection of bacterial strains. The MICs of 4-oxoquinolizines against a selection of Gram-negative and Gram-positive bacterial strains are shown in Table 13 in comparison with known antibiotics.

K. pneumoniae ATCC 33495 = experiment: MIC on K. pneumoniae (Example 5); type: cell-based, Klebsiella pneumoniae; details: sensitive strain
Method: as §1

B. thailandensis = type: cell-based, Burkholderia thailandensis
B. thailandensis E264 = experiment: microbe, parasite or virus in culture; type: cell-based, Burkholderia thailandensis; details: Burkholderia thailandensis, E264, read-out: MICs against Gram negative bacteria B. thailandensis E264
[4] = Acinetobacter baumannii, ATCC19606, read-out: MICs against Gram negative bacteria A. baumannii ATCC 19606
[5] = Staphylococcus aureus, ATCC25923, read-out: MICs against Gram positive bacteria S. aureus ATCC 25923

| Molecule | MIC (S. aureus ATCC 25923; [5]) [µg/mL] | MIC [1] [µg/mL] | MIC (E. coli ATCC 25922) [µg/mL] | other results |
| --- | --- | --- | --- | --- |
| Cc1c(-c2ccc(CN)s2)ccn2c(=O)c(C(=O)[O-])cc(C3CC3)c12.[K+] [Compound 13K salt, potassium 8-(5-(aminomethyl)thiophen-2-yl)-1-cyclopropyl-9-methyl-4-oxo-4H-quinolizine-3-carboxylate] | – | – | – | MIC (A. baumannii ATCC 19606; [4]): 0.125 µg/mL |
| Cc1c(-c2ccc3sc(N)nc3c2)ccn2c(=O)c(C(=O)[O-])cc(C3CC3)c12.[K+] [Compound 73K salt, potassium 8-(2-aminobenzo[d]thiazol-5-yl)-1-cyclopropyl-9-methyl-4-oxo-4H-quinolizine-3-carboxylate] | 50 | 50 | – | MIC (A. baumannii ATCC 19606; [4]): 0.125 µg/mL |
| Cc1c(-c2ccc3[nH]nc(C4CC4)c3c2)ccn2c(=O)c(C(=O)[O-])cc(C3CC3)c12.[K+] [Compound 71K salt, potassium 8-(3-cyclopropyl-1H-indazol-5-yl)-1-cyclopropyl-9-methyl-4-oxo-4H-quinolizine-3-carboxylate] | 50 | 50 | 0.125 | MIC [2]: 0.125 µg/mL |
| Cc1cc(-c2ccn3c(=O)c(C(=O)[O-])cc(C4CC4)c3c2C)cnc1N.[K+] [Compound 79K salt, potassium 8-(6-amino-5-methylpyridin-3-yl)-1-cyclopropyl-9-methyl-4-oxo-4H-quinolizine-3-carboxylate] | 50 | 50 | – | MIC [2]: 0.125 µg/mL |
| COc1c(-c2ccc3[nH]ncc3c2)ccn2c(=O)c(C(=O)[O-])cc(C3CC3)c12.[K+] [Compound 90K salt, potassium 8-(1H-indazol-5-yl)-1-cyclopropyl-9-methoxy-4-oxo-4H-quinolizine-3-carboxylate] | – | – | 0.125 | – |
| COc1c(-c2ccc(N)nc2)ccn2c(=O)c(C(=O)[O-])cc(C3CC3)c12.[K+] [Compound 89K salt, potassium 8-(6-amino-pyridin-3-yl)-1-cyclopropyl-9-methoxy-4-oxo-4H-quinolizine-3-carboxylate] | – | – | 0.125 | – |
| Cc1c(-c2ccc3c(cnn3C)c2)ccn2c(=O)c(C(=O)[O-])cc(C3CC3)c12.[K+] [Compound 81K salt, potassium 8-(1-methyl-1H-indazol-5-yl)-1-cyclopropyl-9-methyl-4-oxo-4H-quinolizine-3-carboxylate] | 50 | 50 | – | MIC (A. baumannii ATCC 19606; [4]): 0.125 µg/mL |
| Cc1cn2c(=O)c(C(=O)[O-])cc(C3CC3)c2c(C)c1-c1ccc(N)nc1.[K+] [Compound 87K salt, potassium 8-(6-amino-pyridin-3-yl)-1-cyclopropyl-7,9-dimethyl-4-oxo-4H-quinolizine-3-carboxylate] | – | – | 0.125 | – |
| Cc1c(-c2ccc3[nH]ncc3c2)ccn2c(=O)c(C(=O)[O-])cc(C3CC3)c12.[K+] [Compound 35K salt, potassium 8-(1H-indazol-5-yl)-1-cyclopropyl-9-methyl-4-oxo-4H-quinolizine-3-carboxylate] | – | – | – | MICs K. pneumoniae BAA-2146 (NDM-1, FQ-R) [3]: >8 µg/mL; MICs K. pneumoniae ATCC 33495 (K. pneumoniae ATCC 33495): 0.125 µg/mL |
| CNc1ccc(-c2ccn3c(=O)c(C(=O)[O-])cc(C4CC4)c3c2C)cn1.[K+] [Compound 78K salt, potassium 8-(6-(methylamino)pyridin-3-yl)-1-cyclopropyl-9-methyl-4-oxo-4H-quinolizine-3-carboxylate] | – | – | – | MIC (A. baumannii ATCC 19606; [4]): 0.125 µg/mL; MIC [2]: 0.125 µg/mL |
| Cc1c(-c2cccc(O)c2)ccn2c(=O)c(C(=O)[O-])cc(C3CC3)c12.[K+] [Compound 56K salt, potassium 1-cyclopropyl-8-(3-hydroxyphenyl)-9-methyl-4-oxo-4H-quinolizine-3-carboxylate] | – | – | – | MIC (A. baumannii ATCC 19606; [4]): 0.125 µg/mL; MIC [2]: 0.125 µg/mL |
| Cc1n[nH]c2ccc(-c3ccn4c(=O)c(C(=O)[O-])cc(C5CC5)c4c3C)cc12.[K+] [Compound 80K salt, potassium 8-(3-methyl-1H-indazol-5-yl)-1-cyclopropyl-9-methyl-4-oxo-4H-quinolizine-3-carboxylate] | 50 | 50 | – | MIC [2]: 0.125 µg/mL |
| C[C@H]1c2cccc(O)c2C(=O)C2=C(O)[C@]3(O)C(=O)C(C(N)=O)=C(O)[C@@H](N(C)C)[C@@H]3[C@@H](O)[C@@H]21 [Doxycycline, reference compound] | – | – | – | MIC (A. baumannii ATCC 19606; Acinetobacter baumannii, ATCC19606; read-out: MICs against Gram negative bacteria A. baumannii ATCC 19606): 0.125 µg/mL (≈ 0.281 µM); MIC (S. aureus ATCC 25923; Staphylococcus aureus, ATCC25923; read-out: MICs against Gram positive bacteria S. aureus ATCC 25923): 0.125 µg/mL (≈ 0.281 µM) |
| Cc1c(-c2ccc(O)cc2)c(F)cn2c(=O)c(C(=O)[O-])cc(C3CC3)c12.[K+] [Compound 61K salt, potassium 8-(4-hydroxyphenyl)-1-cyclopropyl-7-fluoro-9-methyl-4-oxo-4H-quinolizine-3-carboxylate] | 50 | < 0.004 | – | MIC (A. baumannii ATCC 19606; [4]): 0.125 µg/mL |
| Cc1c(-c2ccc(N3CCNCC3)nc2)ccn2c(=O)c(C(=O)[O-])cc(C3CC3)c12.[K+] [Compound 84K salt, potassium 8-(6-(piperazin-1-yl)pyridin-3-yl)-1-cyclopropyl-9-methyl-4-oxo-4H-quinolizine-3-carboxylate] | 0.125 | 0.125 | – | – |
| 8-(4-amino-3-ethyl-5-methyl- phenyl)-1-cyclopropyl-9- methyl-4-oxo-quinolizine-3- carboxylic acid [Compound 16] | – | – | – | MIC90 B. thailandensis (B. thailandensis): <0.048 µg/mL |
| COc1cc(-c2ccn3c(=O)c(C(=O)[O-])cc(C4CC4)c3c2C)ccc1O.[K+] [Compound 66K salt, potassium 8-(4-hydroxy-3-methoxyphenyl)-1-cyclopropyl-9-methyl-4-oxo-4H-quinolizine-3-carboxylate] | – | – | 0.125 | – |
| Cc1c(-c2ccc3cn[nH]c3c2)ccn2c(=O)c(C(=O)[O-])cc(C3CC3)c12.[K+] [Compound 83K salt, potassium 8-(1H-indazol-6-yl)-1-cyclopropyl-9-methyl-4-oxo-4H-quinolizine-3-carboxylate] | 50 | 50 | – | MIC (B. thailandensis E264): 0.125 µg/mL |
| Cc1c(-c2ccc3[nH]ncc3c2)c(F)cn2c(=O)c(C(=O)[O-])cc(C3CC3)c12.[K+] [Compound 75K salt, potassium 8-(1H-indazol-5-yl)-1-cyclopropyl-7-fluoro-9-methyl-4-oxo-4H-quinolizine-3-carboxylate] | 50 | 50 | – | – |
| Cc1c(-c2ccc(O)c(F)c2)ccn2c(=O)c(C(=O)[O-])cc(C3CC3)c12.[K+] [Compound 70K salt, potassium 8-(3-fluoro-4-hydroxyphenyl)-1-cyclopropyl-9-methyl-4-oxo-4H-quinolizine-3-carboxylate] | 50 | 50 | – | MIC (A. baumannii ATCC 19606; [4]): 0.125 µg/mL |
| Cc1c(-c2cnc3[nH]ccc3c2)ccn2c(=O)c(C(=O)[O-])cc(C3CC3)c12.[K+] [Compound 85K salt, potassium 8-(1H-pyrrolo[2,3-b]pyridin-5-yl)-1-cyclopropyl-9-methyl-4-oxo-4H-quinolizine-3-carboxylate] | 50 | 50 | – | – |
| CNc1ccc(-c2ccn3c(=O)c(C(=O)[O-])cc(C4CC4)c3c2C)cc1C.[K+] [Compound 69K salt, potassium 8-(3-methyl-4-(methylamino)phenyl)-1-cyclopropyl-9-methyl-4-oxo-4H-quinolizine-3-carboxylate] | 50 | 50 | 0.125 | – |
| Cc1c(-c2cc(F)c(N)cc2F)ccn2c(=O)c(C(=O)[O-])cc(C3CC3)c12.[K+] [Compound 2K salt, potassium 8-(4-amino-2,5-difluoro-phenyl)-1-cyclopropyl-9-methyl-4-oxo-4H-quinolizine-3-carboxylate] | – | – | – | MIC (K. pneumoniae ATCC 33495; Klebsiella pneumoniae, ATCC33495, read-out: MICs K. pneumoniae ATCC 33495): 0.25 µg/mL |
| Cc1cn2c(=O)c(C(=O)[O-])cc(C3CC3)c2c(C)c1-c1ccc2[nH]ncc2c1.[K+] [Compound 88K salt, potassium 8-(1H-indazol-5-yl)-1-cyclopropyl-7,9-dimethyl-4-oxo-4H-quinolizine-3-carboxylate] | – | – | 0.125 | – |
| CC(=O)NCc1ccc(-c2ccn3c(=O)c(C(=O)[O-])cc(C4CC4)c3c2C)cc1.[K+] [Compound 64K salt, potassium 8-(4-(Acetamidomethyl)phenyl)-1-cyclopropyl-9-methyl-4-oxo-4H-quinolizine-3-carboxylate] | – | – | 0.125 | – |
| Cc1c(-c2ccc3c(c2)CCN3)ccn2c(=O)c(C(=O)[O-])cc(C3CC3)c12.[K+] [Compound 77K salt, potassium 8-(indolin-5-yl)-1-cyclopropyl-9-methyl-4-oxo-4H-quinolizine-3-carboxylate] | – | – | 0.125 | – |
| Cc1c(-c2ccc3c(c2)C(=O)NC3)ccn2c(=O)c(C(=O)[O-])cc(C3CC3)c12.[K+] [Compound 68K salt, potassium 8-(3-oxoisoindolin-5-yl)-1-cyclopropyl-9-methyl-4-oxo-4H-quinolizine-3-carboxylate] | 50 | 50 | – | – |
